Measurements: article PMC5218480 (PLoS ONE, 2017)

Test system: MV-4-11 cells
Assay: Gene expression microarray analysis (Affymetrix PrimeView) and GSEA
Type: cell-based, human
Design: RFU PODN (11730768_x_at) / Fold change /veh PODN (11730768_x_at) / RFU LINC00158 (11744669_a_at) / Fold change /veh LINC00158 (11744669_a_at) / RFU DUSP10 (11751237_a_at) / Fold change /veh DUSP10 (11751237_a_at) / RFU ID3 (11757404_x_at) / Fold change /veh ID3 (11757404_x_at) / RFU PLEKHG5 (11737974_s_at) / Fold change /veh PLEKHG5 (11737974_s_at) / RFU LRRC4B (11730491_at) / Fold change /veh LRRC4B (11730491_at) / RFU GIMAP4 (11747438_a_at) / Fold change /veh GIMAP4 (11747438_a_at) / RFU KRT8 (11758183_x_at) / Fold change /veh KRT8 (11758183_x_at) / RFU CNN1 (11734310_a_at) / Fold change /veh CNN1 (11734310_a_at) / RFU VPS37D (11726825_at) / Fold change /veh VPS37D (11726825_at) / RFU C10orf10 (11716522_x_at) / Fold change /veh C10orf10 (11716522_x_at) / RFU KIR2DL2 /// KIR2DL4 /// KIR2DL5A /// KIR2DL5B /// KIR2DS1 /// KIR2DS2 /// KIR2DS3 /// KIR2DS4 /// KIR3DL3 /// KIR3DL3 /// KIR3DS1 (11738374_at) / Fold change /veh KIR2DL2 /// KIR2DL4 /// KIR2DL5A /// KIR2DL5B /// KIR2DS1 /// KIR2DS2 /// KIR2DS3 /// KIR2DS4 /// KIR3DL3 /// KIR3DL3 /// KIR3DS1 (11738374_at) / RFU C1QL1 (11718748_at) / Fold change /veh C1QL1 (11718748_at) / RFU TMPRSS4 (11747572_a_at) / Fold change /veh TMPRSS4 (11747572_a_at) / RFU HAMP (11756126_x_at) / Fold change /veh HAMP (11756126_x_at) / RFU RNFT2 (11725882_a_at) / Fold change /veh RNFT2 (11725882_a_at) / RFU NR4A2 (11747474_a_at) / Fold change /veh NR4A2 (11747474_a_at) / RFU ABCC12 (11746883_a_at) / Fold change /veh ABCC12 (11746883_a_at) / RFU TMEM136 (11760407_x_at) / Fold change /veh TMEM136 (11760407_x_at) / RFU CLDN22 /// WWC2 (11732394_at) / Fold change /veh CLDN22 /// WWC2 (11732394_at) / RFU HLA-DPB1 (11760878_x_at) / Fold change /veh HLA-DPB1 (11760878_x_at) / RFU SPINT1 (11716480_a_at) / Fold change /veh SPINT1 (11716480_a_at) / RFU GAP43 (11754022_s_at) / Fold change /veh GAP43 (11754022_s_at) / RFU A4GNT (11735810_at) / Fold change /veh A4GNT (11735810_at) / RFU PRB3 (11715151_x_at) / Fold change /veh PRB3 (11715151_x_at) / RFU TUBB4B (11761932_at) / Fold change /veh TUBB4B (11761932_at) / RFU CAPN14 (11732068_a_at) / Fold change /veh CAPN14 (11732068_a_at) / RFU TMCC2 (11721928_a_at) / Fold change /veh TMCC2 (11721928_a_at) / RFU IRGQ (11745062_a_at) / Fold change /veh IRGQ (11745062_a_at) / RFU FAM174B (11720279_a_at) / Fold change /veh FAM174B (11720279_a_at) / RFU TMPRSS4 (11748680_a_at) / Fold change /veh TMPRSS4 (11748680_a_at) / RFU FAM212B (11763350_a_at) / Fold change /veh FAM212B (11763350_a_at) / RFU PLEKHG5 (11743358_a_at) / Fold change /veh PLEKHG5 (11743358_a_at) / RFU ZSCAN30 (11745921_a_at) / Fold change /veh ZSCAN30 (11745921_a_at) / RFU CMKLR1 (11741424_a_at) / Fold change /veh CMKLR1 (11741424_a_at) / RFU LOC101060620 /// MAPK8IP1 (11723275_at) / Fold change /veh LOC101060620 /// MAPK8IP1 (11723275_at) / RFU SPTSSB (11747773_x_at) / Fold change /veh SPTSSB (11747773_x_at) / RFU PRSS12 (11739890_at) / Fold change /veh PRSS12 (11739890_at) / RFU BIN1 (11741810_x_at) / Fold change /veh BIN1 (11741810_x_at) / RFU WNT11 (11732464_a_at) / Fold change /veh WNT11 (11732464_a_at) / RFU C10orf10 (11716521_a_at) / Fold change /veh C10orf10 (11716521_a_at) / RFU C5orf56 (11738089_at) / Fold change /veh C5orf56 (11738089_at) / RFU CYB561 (11721691_x_at) / Fold change /veh CYB561 (11721691_x_at) / RFU ANKRD19P (11752326_a_at) / Fold change /veh ANKRD19P (11752326_a_at) / RFU OR2T12 /// OR2T33 /// OR2T8 (11738714_s_at) / Fold change /veh OR2T12 /// OR2T33 /// OR2T8 (11738714_s_at) / RFU VCAN (11748164_a_at) / Fold change /veh VCAN (11748164_a_at) / RFU JSRP1 (11732532_at) / Fold change /veh JSRP1 (11732532_at) / RFU KRTAP10-11 (11738290_x_at) / Fold change /veh KRTAP10-11 (11738290_x_at) / RFU MYO3A (11730013_a_at) / Fold change /veh MYO3A (11730013_a_at) / RFU EBF3 (11725865_a_at) / Fold change /veh EBF3 (11725865_a_at) / RFU CAMK2N1 (11719241_x_at) / Fold change /veh CAMK2N1 (11719241_x_at) / RFU C5orf56 (11738088_a_at) / Fold change /veh C5orf56 (11738088_a_at) / RFU OLFML3 (11715873_a_at) / Fold change /veh OLFML3 (11715873_a_at) / RFU LOC100653217 /// NTM (11731650_a_at) / Fold change /veh LOC100653217 /// NTM (11731650_a_at) / RFU MAPK11 (11762145_a_at) / Fold change /veh MAPK11 (11762145_a_at) / RFU FIZ1 (11724087_x_at) / Fold change /veh FIZ1 (11724087_x_at) / RFU OASL (11726364_x_at) / Fold change /veh OASL (11726364_x_at) / RFU SOX15 (11748057_x_at) / Fold change /veh SOX15 (11748057_x_at) / RFU CD79A (11719716_a_at) / Fold change /veh CD79A (11719716_a_at) / RFU HIST1H1D (11736915_at) / Fold change /veh HIST1H1D (11736915_at) / RFU CASKIN2 (11723855_a_at) / Fold change /veh CASKIN2 (11723855_a_at) / RFU LOC730098 (11760151_x_at) / Fold change /veh LOC730098 (11760151_x_at) / RFU OR4N2 (11742367_at) / Fold change /veh OR4N2 (11742367_at) / RFU PRRT2 (11749266_a_at) / Fold change /veh PRRT2 (11749266_a_at) / RFU SNX32 (11753110_a_at) / Fold change /veh SNX32 (11753110_a_at) / RFU CDHR5 (11726645_a_at) / Fold change /veh CDHR5 (11726645_a_at) / RFU RCAN1 (11760418_a_at) / Fold change /veh RCAN1 (11760418_a_at) / RFU FAM167A (11723789_a_at) / Fold change /veh FAM167A (11723789_a_at) / RFU FAM26E (11764081_at) / Fold change /veh FAM26E (11764081_at) / RFU ISYNA1 (11749810_s_at) / Fold change /veh ISYNA1 (11749810_s_at) / RFU ACY1 (11761880_at) / Fold change /veh ACY1 (11761880_at) / RFU 11764098_at / Fold change /veh 11764098_at / RFU SAMD14 (11745864_x_at) / Fold change /veh SAMD14 (11745864_x_at) / RFU NPB (11741838_a_at) / Fold change /veh NPB (11741838_a_at) / RFU TMPRSS6 (11731388_a_at) / Fold change /veh TMPRSS6 (11731388_a_at) / RFU KRTAP10-2 (11738614_at) / Fold change /veh KRTAP10-2 (11738614_at) / RFU ARHGAP8 /// PRR5-ARHGAP8 (11727945_x_at) / Fold change /veh ARHGAP8 /// PRR5-ARHGAP8 (11727945_x_at) / RFU KRTAP5-7 /// NADSYN1 (11734609_at) / Fold change /veh KRTAP5-7 /// NADSYN1 (11734609_at) / RFU RASL12 (11751679_a_at) / Fold change /veh RASL12 (11751679_a_at) / RFU CDKN2B (11736163_a_at) / Fold change /veh CDKN2B (11736163_a_at) / RFU PRF1 (11729649_at) / Fold change /veh PRF1 (11729649_at) / RFU, ZNF638 /// ZNF638-IT1 / Fold change vs veh, ZNF638 /// ZNF638-IT1 / RFU, PANK3 / Fold change vs veh, PANK3 / RFU, SH3YL1 / Fold change vs veh, SH3YL1 / RFU, ZEB2 / Fold change vs veh, ZEB2 / RFU, NRIP1 / Fold change vs veh, NRIP1 / RFU, PTTG1IP / Fold change vs veh, PTTG1IP / RFU, CAPN2 / Fold change vs veh, CAPN2 / RFU, MED14 / Fold change vs veh, MED14 / RFU, SNORA58 / Fold change vs veh, SNORA58 / RFU, C1orf63 / Fold change vs veh, C1orf63 / RFU, LRRFIP1 / Fold change vs veh, LRRFIP1 / RFU, NDUFAF7 / Fold change vs veh, NDUFAF7 / RFU, SLC12A2 / Fold change vs veh, SLC12A2 / RFU, IBTK / Fold change vs veh, IBTK / RFU, ESF1 / Fold change vs veh, ESF1 / Fold change vs veh, TMEM50B / RFU, TAOK1 / Fold change vs veh, TAOK1 / RFU, ACBD3 / Fold change vs veh, ACBD3 / RFU, TMA16 / Fold change vs veh, TMA16 / RFU, RWDD3 / Fold change vs veh, RWDD3 / RFU, BCAT1 / Fold change vs veh, BCAT1 / RFU, EDEM3 / Fold change vs veh, EDEM3 / RFU, TMEM33 / Fold change vs veh, TMEM33 / RFU, WDR75 / Fold change vs veh, WDR75 / RFU, AHCTF1 / Fold change vs veh, AHCTF1 / RFU, TFRC / Fold change vs veh, TFRC / RFU, ZDHHC17 / Fold change vs veh, ZDHHC17 / RFU, NOM1 / Fold change vs veh, NOM1 / RFU, ARL8B / Fold change vs veh, ARL8B / RFU, ZBTB11 / Fold change vs veh, ZBTB11 / RFU, TAMM41 / Fold change vs veh, TAMM41 / RFU, KIAA1704 /// LOC100996395 / Fold change vs veh, KIAA1704 /// LOC100996395 / RFU, ING1 / Fold change vs veh, ING1 / RFU, TRMT61B / Fold change vs veh, TRMT61B / RFU, FUBP3 / Fold change vs veh, FUBP3 / RFU, TP53 / Fold change vs veh, TP53 / RFU, TNKS2 / Fold change vs veh, TNKS2 / RFU, ZFP14 / Fold change vs veh, ZFP14 / RFU, ACTR2 / Fold change vs veh, ACTR2 / RFU, PPP3R1 / Fold change vs veh, PPP3R1 / RFU, PIK3R1 / Fold change vs veh, PIK3R1 / RFU, HNRNPA1 / Fold change vs veh, HNRNPA1 / RFU, RNF170 / Fold change vs veh, RNF170 / RFU, ZNF28 / Fold change vs veh, ZNF28 / RFU, RNGTT / Fold change vs veh, RNGTT / RFU, OGT / Fold change vs veh, OGT / RFU, BRD1 / Fold change vs veh, BRD1 / RFU, MARS / Fold change vs veh, MARS / RFU, ZNF655 / Fold change vs veh, ZNF655 / RFU, FAHD1 / Fold change vs veh, FAHD1 / RFU, BDP1 / Fold change vs veh, BDP1 / RFU, LRRCC1 / Fold change vs veh, LRRCC1 / RFU, ARID1A / Fold change vs veh, ARID1A / RFU, ZNF146 / Fold change vs veh, ZNF146 / RFU, ZNF330 / Fold change vs veh, ZNF330 / RFU, GPN3 / Fold change vs veh, GPN3 / RFU, C9orf123 / Fold change vs veh, C9orf123 / RFU, N4BP2L2 / Fold change vs veh, N4BP2L2 / RFU, ARFIP1 / Fold change vs veh, ARFIP1 / RFU, FAM179B / Fold change vs veh, FAM179B / RFU, BCL10 / Fold change vs veh, BCL10 / RFU, UHRF1BP1L / Fold change vs veh, UHRF1BP1L / RFU, BET1 / Fold change vs veh, BET1 / RFU, CNOT2 / Fold change vs veh, CNOT2 / RFU, ZNF268 / Fold change vs veh, ZNF268 / Fold change vs veh, ZNF507 / RFU, DGCR2 / Fold change vs veh, DGCR2 / RFU, WDSUB1 / Fold change vs veh, WDSUB1 / Fold change vs veh, HSP90B1 /// MIR3652 / RFU, ADSS / Fold change vs veh, ADSS / RFU, GK / Fold change vs veh, GK / RFU, ZNF148 / Fold change vs veh, ZNF148 / RFU, TAF9 / Fold change vs veh, TAF9 / RFU, SLC1A5 / Fold change vs veh, SLC1A5 / RFU, SLMO2 / Fold change vs veh, SLMO2 / RFU, ABCC4 / Fold change vs veh, ABCC4 / RFU, LOC101060439 /// RAP1B / Fold change vs veh, LOC101060439 /// RAP1B / RFU, RFX7 / Fold change vs veh, RFX7 / RFU, GTPBP10 / Fold change vs veh, GTPBP10 / RFU, CNEP1R1 / Fold change vs veh, CNEP1R1 / RFU, BIVM-ERCC5 /// ERCC5 / Fold change vs veh, BIVM-ERCC5 /// ERCC5 / RFU, ILF3 / Fold change vs veh, ILF3 / RFU 11762660_at / Fold change /veh 11762660_at / RFU VCAN (11757783_s_at) / Fold change /veh VCAN (11757783_s_at) / RFU DDX43 (11728927_at) / Fold change /veh DDX43 (11728927_at) / RFU KRT8 (11758188_x_at) / Fold change /veh KRT8 (11758188_x_at) / RFU NKD1 (11759106_at) / Fold change /veh NKD1 (11759106_at) / RFU SRD5A1 (11742802_a_at) / Fold change /veh SRD5A1 (11742802_a_at) / RFU TPSAB1 /// TPSB2 (11721975_s_at) / Fold change /veh TPSAB1 /// TPSB2 (11721975_s_at) / RFU GSTM3 (11746129_a_at) / Fold change /veh GSTM3 (11746129_a_at) / RFU IL23R (11737362_x_at) / Fold change /veh IL23R (11737362_x_at) / RFU TMEM51 (11727254_a_at) / Fold change /veh TMEM51 (11727254_a_at) / RFU PIWIL2 (11732686_x_at) / Fold change /veh PIWIL2 (11732686_x_at) / RFU ORM1 (11744905_x_at) / Fold change /veh ORM1 (11744905_x_at) / RFU CCDC152 (11743942_at) / Fold change /veh CCDC152 (11743942_at) / RFU ECM1 (11717891_a_at) / Fold change /veh ECM1 (11717891_a_at) / RFU IL23R (11748794_a_at) / Fold change /veh IL23R (11748794_a_at) / RFU TNFAIP8L3 (11732012_x_at) / Fold change /veh TNFAIP8L3 (11732012_x_at) / RFU MBOAT4 (11741988_at) / Fold change /veh MBOAT4 (11741988_at) / RFU 11764193_at / Fold change /veh 11764193_at / RFU TMEM53 (11763286_at) / Fold change /veh TMEM53 (11763286_at) / RFU MAGEB2 (11727129_at) / Fold change /veh MAGEB2 (11727129_at) / RFU TMEM200A (11744735_a_at) / Fold change /veh TMEM200A (11744735_a_at) / RFU CCDC152 (11751479_a_at) / Fold change /veh CCDC152 (11751479_a_at) / RFU FAM211A (11726209_a_at) / Fold change /veh FAM211A (11726209_a_at) / RFU RGS16 (11746705_a_at) / Fold change /veh RGS16 (11746705_a_at) / RFU VCAN (11755009_s_at) / Fold change /veh VCAN (11755009_s_at) / RFU RHOB (11743442_s_at) / Fold change /veh RHOB (11743442_s_at) / RFU RGS16 (11720943_a_at) / Fold change /veh RGS16 (11720943_a_at) / RFU RGS16 (11720944_at) / Fold change /veh RGS16 (11720944_at) / RFU, VPS4B / Fold change vs veh, VPS4B / RFU, CREB1 / Fold change vs veh, CREB1 / RFU, DNAJC13 / Fold change vs veh, DNAJC13 / RFU, GNAQ / Fold change vs veh, GNAQ / RFU, CDK5R1 / Fold change vs veh, CDK5R1 / RFU, ZRANB3 / Fold change vs veh, ZRANB3 / RFU, CUL4A / Fold change vs veh, CUL4A / RFU, CCNY / Fold change vs veh, CCNY / RFU, UFL1 / Fold change vs veh, UFL1 / RFU, COG3 / Fold change vs veh, COG3 / RFU, DIAPH2 / Fold change vs veh, DIAPH2 / RFU, SKA2 / Fold change vs veh, SKA2 / RFU, AFF3 / Fold change vs veh, AFF3 / RFU, LMF1 / Fold change vs veh, LMF1 / RFU, IPO11 / Fold change vs veh, IPO11 / RFU, DFFB / Fold change vs veh, DFFB / RFU, FOXP1 / Fold change vs veh, FOXP1 / RFU, CARD8 / Fold change vs veh, CARD8 / RFU, STRN3 / Fold change vs veh, STRN3 / RFU, ADK / Fold change vs veh, ADK / RFU, RASSF2 / Fold change vs veh, RASSF2 / RFU, WIPF1 / Fold change vs veh, WIPF1 / RFU, LARP1B / Fold change vs veh, LARP1B / RFU, RASA1 / Fold change vs veh, RASA1 / RFU, RB1 / Fold change vs veh, RB1 / RFU, PPFIA1 / Fold change vs veh, PPFIA1 / RFU, MAT2A / Fold change vs veh, MAT2A / RFU, CCT5 / Fold change vs veh, CCT5 / RFU, WDR92 / Fold change vs veh, WDR92 / RFU, CUX1 / Fold change vs veh, CUX1 / RFU, TTC7A / Fold change vs veh, TTC7A / RFU, TMEM135 / Fold change vs veh, TMEM135 / RFU, DEPTOR / Fold change vs veh, DEPTOR / RFU, CPM / Fold change vs veh, CPM / RFU, DNAJB6 / Fold change vs veh, DNAJB6 / RFU, CACNA2D3 / Fold change vs veh, CACNA2D3 / RFU, DTX4 / Fold change vs veh, DTX4 / RFU, TFCP2 / Fold change vs veh, TFCP2 / RFU, GMCL1 /// GMCL1P1 / Fold change vs veh, GMCL1 /// GMCL1P1 / RFU, AEBP2 / Fold change vs veh, AEBP2 / RFU, SNHG1 /// SNORD22 /// SNORD25 /// SNORD26 /// SNORD27 /// SNORD28 /// SNORD29 /// SNORD31 / Fold change vs veh, SNHG1 /// SNORD22 /// SNORD25 /// SNORD26 /// SNORD27 /// SNORD28 /// SNORD29 /// SNORD31 / Fold change (Aza/veh), C12orf56 (ProbeSet 11735607_a_at) / Fold change (ACY-1035/veh), C12orf56 (ProbeSet 11735607_a_at) / Fold change (Aza/veh), FGFR1OP (ProbeSet 11751329_s_at) / Fold change (ACY-1035/veh), FGFR1OP (ProbeSet 11751329_s_at) / Fold change (Aza/veh), VPS36 (ProbeSet 11739960_a_at) / Fold change (ACY-1035/veh), VPS36 (ProbeSet 11739960_a_at) / RFU SYPL1 (11715823_x_at) / Fold change /veh SYPL1 (11715823_x_at) / RFU IGFBP7 (11715501_s_at) / Fold change /veh IGFBP7 (11715501_s_at) / RFU REEP3 (11722064_at) / Fold change /veh REEP3 (11722064_at) / RFU IGLL1 (11728026_x_at) / Fold change /veh IGLL1 (11728026_x_at): dose or concentration left out as unconfirmed
Conditions: MV-4-11 cells, 48 hours

Nc1ccc(-c2cccs2)cc1NC(=O)c1ccc2c(c1)cc(C1CC1)n2CCN1CCOCC1 [ACY-1035]
RFU RCAN1 (11760418_a_at): 20.19 RFU
